Test results taken from article PMC6222666, “Rutacecarpine Inhibits Angiogenesis by Targeting the VEGFR2 and VEGFR2-Mediated Akt/mTOR/p70s6k Signaling Pathway” (Molecules : A Journal of Synthetic Chemistry and Natural …, 2018).

Molecular target: T1, VEGFR2 (vascular endothelial growth factor receptor 2) (Homo sapiens, UniProt P35968)
T1 construct: gene KDR
Assay: SPR (Biacore T200, VEGFR2 immobilized on CM5 chip); also ELISA-based kinase assay IC50 […]
Assay type: binding

T1 sequence (P35968 20-1356): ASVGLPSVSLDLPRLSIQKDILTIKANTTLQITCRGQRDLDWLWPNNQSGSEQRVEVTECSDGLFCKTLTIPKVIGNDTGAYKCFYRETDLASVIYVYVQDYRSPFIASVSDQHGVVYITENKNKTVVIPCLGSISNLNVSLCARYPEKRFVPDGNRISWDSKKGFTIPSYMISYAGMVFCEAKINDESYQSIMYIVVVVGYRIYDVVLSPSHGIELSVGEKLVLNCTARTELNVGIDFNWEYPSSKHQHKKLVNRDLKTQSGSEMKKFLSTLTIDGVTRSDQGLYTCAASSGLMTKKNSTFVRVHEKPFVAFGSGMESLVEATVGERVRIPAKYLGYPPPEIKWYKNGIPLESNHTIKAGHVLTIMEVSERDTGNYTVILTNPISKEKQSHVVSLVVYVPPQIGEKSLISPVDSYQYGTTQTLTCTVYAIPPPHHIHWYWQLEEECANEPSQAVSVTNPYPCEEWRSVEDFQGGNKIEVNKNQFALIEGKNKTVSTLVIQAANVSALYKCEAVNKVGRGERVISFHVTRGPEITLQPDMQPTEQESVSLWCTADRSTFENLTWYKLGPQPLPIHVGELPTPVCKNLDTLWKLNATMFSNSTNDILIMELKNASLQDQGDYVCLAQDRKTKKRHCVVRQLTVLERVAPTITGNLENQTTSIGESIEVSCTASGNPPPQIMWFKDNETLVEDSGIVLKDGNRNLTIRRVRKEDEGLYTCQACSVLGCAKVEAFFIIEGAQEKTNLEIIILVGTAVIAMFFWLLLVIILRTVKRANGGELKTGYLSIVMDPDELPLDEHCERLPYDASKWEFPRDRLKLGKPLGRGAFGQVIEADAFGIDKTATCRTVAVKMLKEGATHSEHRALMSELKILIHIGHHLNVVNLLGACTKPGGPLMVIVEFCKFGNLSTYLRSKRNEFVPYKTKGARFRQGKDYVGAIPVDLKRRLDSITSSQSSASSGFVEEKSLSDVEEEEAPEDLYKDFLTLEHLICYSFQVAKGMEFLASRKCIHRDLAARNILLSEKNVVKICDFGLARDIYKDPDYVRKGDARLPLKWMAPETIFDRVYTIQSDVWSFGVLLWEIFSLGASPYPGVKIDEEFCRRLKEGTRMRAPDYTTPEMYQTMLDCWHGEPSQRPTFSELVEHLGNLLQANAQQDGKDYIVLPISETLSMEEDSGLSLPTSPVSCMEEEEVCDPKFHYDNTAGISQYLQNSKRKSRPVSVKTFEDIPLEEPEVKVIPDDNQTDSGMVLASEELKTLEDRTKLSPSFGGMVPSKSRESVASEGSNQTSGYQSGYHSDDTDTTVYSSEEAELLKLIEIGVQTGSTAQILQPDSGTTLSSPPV

- Kd: 471 nM
Compound: O=c1c2ccccc2nc2n1CCc1c-2[nH]c2ccccc12 [rutaecarpine]
